Data published in patent US11584741B2, “Crystalline forms of 4-(5-(4,7-dimethylbenzofuran-2-yl)-1,2,4-oxadiazol-3-yl)benzoic acid and processes for their preparation” (King's College London, priority 2016, dated 2023).
In brackets after ≈: the same amount, converted by molar mass. Entries after “also recorded” stand apart in the source; their conditions may differ.

Key:
[1] = Solubility studies, shake-flask method in 15 solvents; format: physicochemical; settings: for solubility at 24 h: 20° C.
Experimental: The solubility of BHBA-001 (characterised by XRPD as Form 1) was determined in 15 solvents to study the initial polymorphic behaviour. A shake-flask method was applied in which solid was added stepwise (e.g., 10 mg at a time) to a known amount of solvent (e.g., 3 mL). The solubility was confirmed visually. After the addition, the suspension/solution was held for 24 hours at 20° C. in order to check for slow dissolution or recrystallization. If the solid was not completely dissolved, the suspension was heated to 50° C. to encourage dissolution. The solvent was then removed by evaporation, in some cases, with the help of anti-solvent. The resulting solid was analysed using XRPD.

RARβ [2] = biological target: T1, RARβ (Homo sapiens, UniProt P10826); assay: Transcriptional transactivation assay, gal4-RAR fusion receptor / luciferase reporter in COS-7 cells; format: cell-based; settings: Table 21
T1 construct: expressed in transfected cells; host or cells: COS-7
T1 sequence (P10826 183-417 limits assumed): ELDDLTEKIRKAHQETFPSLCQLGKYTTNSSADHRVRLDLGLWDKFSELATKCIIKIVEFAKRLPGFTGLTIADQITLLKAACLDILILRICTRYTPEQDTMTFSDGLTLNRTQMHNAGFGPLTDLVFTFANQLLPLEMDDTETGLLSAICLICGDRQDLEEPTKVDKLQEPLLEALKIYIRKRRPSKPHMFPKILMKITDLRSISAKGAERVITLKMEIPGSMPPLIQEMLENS
Experimental: (§1) Transcriptional transactivation assays were performed with gal4 fusion receptor constructs, created using each of the RAR ligand binding domains of either mouse or human, co-transfected with the pFR-luc (Stratagene) reporter construct in COS-7 cells.
(§2) Briefly, on day 1, 96 well plates were seeded with 8000 cells per well then left to recover overnight. On day 2, the cells were co-transfected with 100 ng of reporter plasmid and 10 ng of the appropriate receptor plasmid per well using lipofectamine (Invitrogen). On day 3, the lipofectamine containing media was replaced by a DMEM without phenol red, followed by the addition of test compound dissolved in 1 μL of DMSO to each well's 100 μL total volume. Finally, on day 4, the cells were lysed and their luciferase substrate was provided by the BrightGlo™ reagent (Promega), the plates were then read on the MicroBeta TrLux™ (Perkin Elmer).
(§3) Data for test compounds are quoted as EC50 values. Where replicate data has been generated, the data are quoted as the mean EC50 from the separate experiments.

RARβ [3] = biological target: T2, RARβ (Mus musculus, UniProt P22605); assay: as above; format: cell-based
T2 construct: expressed in transfected cells; host or cells: COS-7
T2 sequence (P22605 210-444 limits assumed): T1 sequence (P10826 183-417 limits assumed)
Experimental: as §1, §2, §3

[4] = system: rats with severed and re-implanted sensory roots at the level of the left forelimb; assay: Sensory roots of four DRG severed and re-implanted into the spinal cord, sticky tape tests; format: in vivo; settings: rat, after 5 weeks, 1 mg/kg three times a week
Experimental: In another example of nerve injury, the four sensory roots from each of four DRG at the level of the left forelimb were severed and re-implanted into the spinal cord.
The results are illustrated in Borthwick et al., 2016. […] Rats were treated with 1 mg/kg of the test compound or vehicle two days after lesion, and then three times a week for the period of the experiment. Error bars show SEM. ***P<0.001, students t test, n=3-4 rats for each treatment group. At weeks 3, 4, and 5, there was significant difference between the rats treated with RARβ agonist as compared to rats treated with other retinoid agonists and vehicle.

[5] = Dynamic vapour sorption (DVS) hygroscopicity; format: physicochemical; settings: from DVS, 0% to 95% RH
Experimental: The DVS studies were performed using a Surface Measurement Systems Ltd. DVS-1 No Video (Equipment #2126).
The sample was weighed in a glass pan, typically 20-30 mg, and equilibrated at 0% RH. After the material had dried, the relative humidity (RH) was increased with 10% per step for 1 hour per increment, ending at 95% RH.
The software used for data collection was DVSWn v3.01 No Video. Data analysis was performed using DVS Standard Analysis Suite v6.3.0 (Standard).
To determine the hygroscopicity of Form 1, a DVS plot was measured at 25° C. for a double sorption-desorption cycle. The total mass uptake was 8.7% w/w between 0% and 95% RH, which characterised Form 1 as a hygroscopic form. The uptake was reversible and reproducible.
To determine the hygroscopicity of Form 4, a DVS plot was measured at 25° C. for a double sorption-desorption cycle. The total mass uptake was 0.1% between 0% and 95% RH, which characterises Form 4 as a non-hygroscopic form.

[6] = Stability studies on storage (appearance, drug content, water content, drug-related impurities); format: physicochemical
Experimental: Stability studies were performed as follows. Samples were packaged in double low density polyethylene bags, sealed with plastic ties, and placed in high-density polyethylene (HDPE) drums.
The samples were tested periodically for visual appearance, drug content (by HPLC), water content (by Karl Fischer titration), and drug-related impurities (by HPLC).
Drug content, corrected to a water and solvent free basis, is calculated from the following equation: Content (%)=100−(water+solvents+residue on ignition+related impurities).
Drug-related impurities were determined using a reverse-phase gradient HPLC method with UV detection at 254 nm, using a 150 mm×4.6 mm, 3 μm Waters Atlantis T3 column, with the following parameters: […]

cerebellar neurons = assay: Neurite outgrowth assay, cerebellar neurons in the presence of myelin / MAG; format: cell-based, rat; settings: for Effect on RARβ agonist (CD2019) mediated neurite outgrowth: cerebellar neurons cultured with CD2019 plus inhibitor; for Effect on RARβ agonist (CD2019) mediated neurite outgrowth in the presence of MAG: cerebellar neurons
Experimental: Cerebellar neurons isolated from post-natal day 3 rat pups were cultured over monolayers of parental 3T3 cells in control media, or media supplemented with a recombinant MAG-Fc chimera (R&D Systems) used at a final concentration of 20 μg/mL MAG-Fc. The monolayers were established for 24 hours prior to addition of the neurons and the co-cultures were maintained for approximately 21 hours. Following careful fixation with 4% paraformaldehyde, the neurons were immuno-stained with a GAP-43 antibody (from Graham Wilkin, Imperial College), dilution of 1:500, and the mean length of the longest neurite per cell was measured for approximately 120-150 neurons as previously described (see, e.g., Williams et al., 2005). DRG and cortical explants were obtained from adult rats, they were cultured in cellogen as previously described (see, e.g., Corcoran and Maden, 1999). Three explants per treatment were used. Neurite outgrowth was assessed 3 days later by immunohistochemistry with NF200 (Sigma, dilution of 1:200). The average lengths of the neurites were measured using image pro plus software. Media consisted of DMEM-F12 (Invitrogen) containing N2 (Invitrogen) supplemented with glucose (33 mM) and glutamine (2 mM).

[7] = after 24 months at 25° C./60% RH and 6 months at 40° C./75% RH

## Cc1ccc(C)c2oc(-c3nc(-c4ccc(C(=O)O)cc4)no3)cc12 [BHBA-001, 4-(5-(4,7-dimethylbenzofuran-2-yl)-1,2,4-oxadiazol-3-yl)benzoic acid]
[1]; in most solvents of the 15 tested
  Solubility (in words): only poorly soluble
[1]; organic solvent or mixture, thermodynamic from solid, 1-propanol, starting solid Form 1
  solubility at 24 h: < 3000 µg/mL
[1]; organic solvent or mixture, thermodynamic from solid, 2-methyltetrahydrofuran, starting solid Form 1
  solubility at 24 h: 5000 to 10000 µg/mL (≈ 15 to 29.9 mM)
[1]; organic solvent or mixture, thermodynamic from solid, 2-propanol, starting solid Form 1
  solubility at 24 h: < 3000 µg/mL
[1]; organic solvent or mixture, thermodynamic from solid, acetic acid, starting solid Form 1
  solubility at 24 h: < 4000 µg/mL
[1]; organic solvent or mixture, thermodynamic from solid, acetone, at 50° C. (footnote), starting solid Form 1
  solubility: < 3000 µg/mL
[1]; organic solvent or mixture, thermodynamic from solid, acetonitrile, starting solid Form 1
  solubility at 24 h: < 4000 µg/mL
[1]; organic solvent or mixture, thermodynamic from solid, dichloromethane, starting solid Form 1
  solubility at 24 h: < 3000 µg/mL
[1]; organic solvent or mixture, thermodynamic from solid, ethanol, starting solid Form 1
  solubility at 24 h: < 4000 µg/mL
[1]; organic solvent or mixture, thermodynamic from solid, ethyl acetate, starting solid Form 1
  solubility at 24 h: < 4000 µg/mL
[1]; organic solvent or mixture, thermodynamic from solid, isopropyl acetate, starting solid Form 1
  solubility at 24 h: 4000 µg/mL (≈ 12 mM)
[1]; organic solvent or mixture, thermodynamic from solid, methyl tert-butyl ether, starting solid Form 1
  solubility at 24 h: < 3000 µg/mL
[1]; organic solvent or mixture, thermodynamic from solid, n-heptane, starting solid Form 1
  solubility at 24 h: < 3000 µg/mL
[1]; organic solvent or mixture, thermodynamic from solid, tetrahydrofuran (THF), starting solid Form 1
  solubility at 24 h: 9000 to 30000 µg/mL (≈ 26.9 to 89.7 mM)
[1]; organic solvent or mixture, thermodynamic from solid, toluene, starting solid Form 1
  solubility at 24 h: < 3000 µg/mL
[1]; thermodynamic from solid, water, starting solid Form 1
  solubility at 24 h: < 3000 µg/mL
RARβ [2]
  Selectivity over RARα: 23-fold
  Selectivity over RARγ: 5-fold
RARβ [3]; Mouse, Table 21
  Selectivity over RARγ: 6-fold
RARβ [3]; Table 20, mean of three or more determinations, species not given, value equals mouse value of Table 21
  EC50: < 2 nM
[4]
  Behavioural test (sticky tape): performed as well as non-lesioned animals

## Cc1ccc(C)c2oc(-c3nc(-c4ccc(C(=O)O)cc4)no3)cc12 [Form 1, 4-(5-(4,7-dimethylbenzofuran-2-yl)-1,2,4-oxadiazol-3-yl)benzoic acid]
[5]
  Hygroscopicity characterisation: hygroscopic

## Cc1ccc(C)c2oc(-c3nc(-c4ccc(C(=O)O)cc4)no3)cc12 [Form 4, 4-(5-(4,7-dimethylbenzofuran-2-yl)-1,2,4-oxadiazol-3-yl)benzoic acid]
[5]
  Hygroscopicity characterisation: low hygroscopicity; also recorded: non-hygroscopic
[6]; 25° C./60% RH
  Storage time shown to be stable: at least 24 months
[6]; 25° C./60% RH, 3 months
  Drug Content: 98.7 % w/w
  Drug-Related Impurities: 0.06 % area
  Visual Appearance: As initial
  Water content: <0.1 % w/w
[6]; 25° C./60% RH, 6 months
  Drug Content: 100.2 % w/w
  Drug-Related Impurities: 0.05 % area
  Visual Appearance: As initial
  Water content: <0.1 % w/w
[6]; 25° C./60% RH, 9 months
  Drug Content: 99.2 % w/w
  Drug-Related Impurities: 0.03 % area
  Visual Appearance: As initial
  Water content: <0.1 % w/w
[6]; 25° C./60% RH, 12 months
  Drug Content: 100.4 % w/w
  Drug-Related Impurities: 0.03 % area
  Visual Appearance: Off-white
  Water content: <0.1 % w/w
[6]; 25° C./60% RH, 18 months
  Drug Content: 101.1 % w/w
  Drug-Related Impurities: 0.07 % area
  Visual Appearance: Off-white
  Water content: <0.1 % w/w
[6]; 25° C./60% RH, 24 months
  Drug Content: 101.5 % w/w
  Drug-Related Impurities: <0.03 % area
  Visual Appearance: As initial
  Water content: <0.1 % w/w
[6]; 40° C./75% RH
  Storage time shown to be stable: ≥ 6 months
[6]; 40° C./75% RH, 3 months
  Drug Content: 98.3 % w/w
  Drug-Related Impurities: 0.10 % area
  Visual Appearance: As initial
  Water content: <0.1 % w/w
[6]; 40° C./75% RH, 6 months
  Drug Content: 99.8 % w/w
  Drug-Related Impurities: 0.05 % area
  Visual Appearance: As initial
  Water content: <0.1 % w/w
[6]; Initial, 0 months
  Drug Content: 100.1 % w/w
  Drug-Related Impurities: 0.03 % area
  Visual Appearance: White
  Water content: <0.1 % w/w
[6]; [7]
  Change of appearance on storage: essentially unchanged
  Change of drug content on storage: essentially unchanged
  Change of drug-related impurity levels on storage: essentially unchanged
  Change of water content on storage: essentially unchanged
[6]; ambient conditions
  Stability at ambient conditions (in words): stable for many months

## CCCCCCOC(=O)[C@]1(O)C[C@@H]2O[C@@]1(C)n1c3ccccc3c3c4c(c5c6ccccc6n2c5c31)C(=O)NC4 [KT5720]
Cerebellar neurons
  Effect on RARβ agonist (CD2019) mediated neurite outgrowth: little or no effect
  Effect on RARβ agonist (CD2019) mediated neurite outgrowth in the presence of MAG: does not affect

## O=c1cc(N2CCOCC2)oc2c(-c3ccccc3)cccc12 [LY295002]
Cerebellar neurons
  Effect on RARβ agonist (CD2019) mediated neurite outgrowth: severely impeded
  Effect on RARβ agonist (CD2019) mediated neurite outgrowth in the presence of MAG: prevents
